Laboratory results: patent publication US20240197737A1, “APPLICATION OF COMPOUND IN PREPARATION OF INHIBITORY DRUG TARGETING ERBB2 MUTANT” (SHANGHAI PHARMACEUTICALS HOLDING CO., LTD., priority 2021, published 2024)

Tests used:
Assay in all cases: ErbB2 mutant inhibition assay (33P-ATP radiometric kinase assay, Reaction Biology)
Format in all cases: biochemical
ErbB2 (D769Y) = target: T1, ErbB2 (D769Y) (Homo sapiens, UniProt P04626, D769Y); conditions: ATP 10 μM, 20 min preincubation, 2 h reaction; read-out: Compound IC50 ErbB2 (D769Y)
T1 construct: purchased Reaction Biology Corporation
T1 sequence (P04626 23-1255 D769Y): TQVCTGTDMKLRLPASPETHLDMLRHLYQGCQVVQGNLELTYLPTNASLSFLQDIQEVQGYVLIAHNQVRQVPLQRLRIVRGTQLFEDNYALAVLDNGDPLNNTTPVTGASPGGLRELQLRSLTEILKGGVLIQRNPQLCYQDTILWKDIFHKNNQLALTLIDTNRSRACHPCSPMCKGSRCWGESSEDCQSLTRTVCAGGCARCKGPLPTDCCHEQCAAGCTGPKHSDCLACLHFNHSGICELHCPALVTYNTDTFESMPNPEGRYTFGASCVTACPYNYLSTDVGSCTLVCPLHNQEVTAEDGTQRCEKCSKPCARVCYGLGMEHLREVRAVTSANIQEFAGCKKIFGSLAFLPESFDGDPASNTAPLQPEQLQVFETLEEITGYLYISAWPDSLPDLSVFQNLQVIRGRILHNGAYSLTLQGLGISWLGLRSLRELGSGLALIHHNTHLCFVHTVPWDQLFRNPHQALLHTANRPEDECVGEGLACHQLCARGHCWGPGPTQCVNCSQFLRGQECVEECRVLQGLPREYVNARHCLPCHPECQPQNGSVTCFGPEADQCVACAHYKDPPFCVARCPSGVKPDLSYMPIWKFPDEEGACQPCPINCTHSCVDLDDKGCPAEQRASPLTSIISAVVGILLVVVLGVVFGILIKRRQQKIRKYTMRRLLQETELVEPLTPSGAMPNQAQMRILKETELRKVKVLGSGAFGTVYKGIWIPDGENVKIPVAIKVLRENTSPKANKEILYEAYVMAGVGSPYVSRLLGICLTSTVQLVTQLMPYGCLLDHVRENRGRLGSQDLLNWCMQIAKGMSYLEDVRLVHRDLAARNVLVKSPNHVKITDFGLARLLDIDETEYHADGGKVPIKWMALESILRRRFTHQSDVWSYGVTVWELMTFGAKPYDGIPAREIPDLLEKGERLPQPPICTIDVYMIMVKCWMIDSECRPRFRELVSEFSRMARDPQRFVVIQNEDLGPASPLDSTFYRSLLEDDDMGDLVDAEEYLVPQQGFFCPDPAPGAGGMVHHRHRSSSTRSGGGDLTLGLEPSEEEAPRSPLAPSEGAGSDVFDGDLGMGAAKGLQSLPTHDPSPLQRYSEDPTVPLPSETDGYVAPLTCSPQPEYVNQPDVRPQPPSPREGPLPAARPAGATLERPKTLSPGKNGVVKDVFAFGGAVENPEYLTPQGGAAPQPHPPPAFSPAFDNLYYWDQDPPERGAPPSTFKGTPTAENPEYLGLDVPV
Protocol: (§1) The reagents and materials used in the assay, as well as the testing procedure, were provided and carried out by Reaction Biology Corporation. The specific steps were as follows: • 1. […] Conditions for the enzyme reaction assay: The test compounds were incubated for 20 minutes, ATP concentration was set at 10 μM, and the total duration of the enzyme reaction was 2 hours. • 3. Experimental steps for the enzyme reaction
(§2) The enzyme reaction buffer was 20 mM HEPES at a pH of 7.5, 10 mM MgCl2, 2 mM MnCl2, 1 mM EGTA, 0.01% Brij35, 0.02 mg/mL BSA, 0.1 mM Na3VO4, 2 mM DTT, and 1% DMSO.
(§3) Kinase activity %=(Remaining kinase activity of test compound samples/Kinase activity of solvent control samples (DMSO))*100%
(§4) The IC50 of the compound was calculated by fitting the kinase activity % at different compound concentrations.

ErbB2 (V777L) = target: T2, ErbB2 (V777L) (Homo sapiens, UniProt P04626, V777L); conditions: ATP 10 μM, 20 min preincubation, 2 h reaction; read-out: Compound IC50 ErbB2 (V777L)
T2 construct: purchased Reaction Biology Corporation
T2 sequence (P04626 23-1255 V777L): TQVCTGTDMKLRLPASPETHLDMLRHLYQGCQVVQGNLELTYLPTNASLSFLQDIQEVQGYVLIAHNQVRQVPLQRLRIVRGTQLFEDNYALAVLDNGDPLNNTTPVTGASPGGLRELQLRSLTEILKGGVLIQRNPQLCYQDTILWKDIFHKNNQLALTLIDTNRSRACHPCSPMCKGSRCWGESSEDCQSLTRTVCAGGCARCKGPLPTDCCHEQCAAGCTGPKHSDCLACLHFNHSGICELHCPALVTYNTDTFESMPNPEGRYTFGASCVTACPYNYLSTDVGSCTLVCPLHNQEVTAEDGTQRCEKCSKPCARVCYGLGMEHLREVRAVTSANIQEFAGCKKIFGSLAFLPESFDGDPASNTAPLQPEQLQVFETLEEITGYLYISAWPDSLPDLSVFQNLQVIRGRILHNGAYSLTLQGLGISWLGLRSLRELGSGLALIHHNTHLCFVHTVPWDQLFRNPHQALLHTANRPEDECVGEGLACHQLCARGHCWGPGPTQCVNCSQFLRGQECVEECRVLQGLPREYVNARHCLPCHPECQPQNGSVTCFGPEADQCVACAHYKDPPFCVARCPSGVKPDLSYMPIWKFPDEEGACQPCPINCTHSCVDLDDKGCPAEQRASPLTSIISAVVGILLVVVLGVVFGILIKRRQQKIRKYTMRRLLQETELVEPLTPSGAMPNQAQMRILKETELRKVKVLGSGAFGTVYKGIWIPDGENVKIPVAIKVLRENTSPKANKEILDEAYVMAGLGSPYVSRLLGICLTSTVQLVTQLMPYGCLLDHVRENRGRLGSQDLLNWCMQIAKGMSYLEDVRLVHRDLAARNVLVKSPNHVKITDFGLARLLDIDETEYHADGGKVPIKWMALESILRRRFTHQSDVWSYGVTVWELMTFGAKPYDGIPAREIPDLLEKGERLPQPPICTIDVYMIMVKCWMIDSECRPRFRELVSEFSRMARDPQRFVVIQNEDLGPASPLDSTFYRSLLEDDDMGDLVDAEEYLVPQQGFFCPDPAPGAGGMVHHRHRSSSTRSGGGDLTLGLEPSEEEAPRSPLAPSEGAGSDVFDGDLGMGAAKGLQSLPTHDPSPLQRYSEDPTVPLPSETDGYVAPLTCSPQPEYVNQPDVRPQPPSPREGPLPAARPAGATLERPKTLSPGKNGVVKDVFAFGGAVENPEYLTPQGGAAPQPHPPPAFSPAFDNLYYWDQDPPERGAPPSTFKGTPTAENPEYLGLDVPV
Protocol: as §1, §2, §3, §4

ErbB2 (R896C) = target: T3, ErbB2 (R896C) (Homo sapiens, UniProt P04626, R896C); conditions: ATP 10 μM, 20 min preincubation, 2 h reaction; read-out: Compound IC50 ErbB2 (R896C)
T3 construct: purchased Reaction Biology Corporation
T3 sequence (P04626 23-1255 R896C): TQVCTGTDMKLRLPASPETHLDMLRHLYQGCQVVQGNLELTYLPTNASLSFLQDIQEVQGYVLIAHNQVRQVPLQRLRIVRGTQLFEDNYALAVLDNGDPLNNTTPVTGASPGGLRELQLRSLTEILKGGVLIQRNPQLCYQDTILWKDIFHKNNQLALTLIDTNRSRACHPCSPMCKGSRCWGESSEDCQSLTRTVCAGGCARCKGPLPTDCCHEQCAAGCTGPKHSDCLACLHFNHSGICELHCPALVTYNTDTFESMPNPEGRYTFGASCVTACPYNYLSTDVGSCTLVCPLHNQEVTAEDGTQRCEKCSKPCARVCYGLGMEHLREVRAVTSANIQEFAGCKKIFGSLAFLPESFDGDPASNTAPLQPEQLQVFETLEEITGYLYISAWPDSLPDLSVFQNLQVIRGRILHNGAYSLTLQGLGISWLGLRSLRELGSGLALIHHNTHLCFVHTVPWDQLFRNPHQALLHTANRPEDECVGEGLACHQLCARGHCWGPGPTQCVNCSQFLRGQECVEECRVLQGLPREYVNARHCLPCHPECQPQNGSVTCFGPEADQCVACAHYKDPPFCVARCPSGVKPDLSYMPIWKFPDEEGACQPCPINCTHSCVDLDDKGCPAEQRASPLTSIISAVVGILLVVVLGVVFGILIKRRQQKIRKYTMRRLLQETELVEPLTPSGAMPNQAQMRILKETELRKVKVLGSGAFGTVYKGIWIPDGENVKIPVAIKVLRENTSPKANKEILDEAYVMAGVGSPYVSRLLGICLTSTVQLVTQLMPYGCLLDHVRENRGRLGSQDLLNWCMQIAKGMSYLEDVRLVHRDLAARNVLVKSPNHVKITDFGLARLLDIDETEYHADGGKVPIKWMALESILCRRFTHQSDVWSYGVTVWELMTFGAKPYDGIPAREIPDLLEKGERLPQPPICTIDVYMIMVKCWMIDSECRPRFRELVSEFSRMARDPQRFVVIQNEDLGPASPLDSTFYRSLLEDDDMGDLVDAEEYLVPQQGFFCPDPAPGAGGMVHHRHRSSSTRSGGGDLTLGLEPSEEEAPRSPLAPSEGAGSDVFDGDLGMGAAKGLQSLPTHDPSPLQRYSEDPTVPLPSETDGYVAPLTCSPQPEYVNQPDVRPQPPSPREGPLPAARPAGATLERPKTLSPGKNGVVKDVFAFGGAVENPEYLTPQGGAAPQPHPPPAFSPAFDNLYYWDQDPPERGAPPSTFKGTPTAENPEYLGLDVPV
Protocol: as §1, §2, §3, §4

ErbB2 (D769H) = target: T4, ErbB2 (D769H) (Homo sapiens, UniProt P04626, D769H); conditions: ATP 10 μM, 20 min preincubation, 2 h reaction; read-out: Compound IC50 ErbB2 (D769H)
T4 construct: purchased Reaction Biology Corporation
T4 sequence (P04626 23-1255 D769H): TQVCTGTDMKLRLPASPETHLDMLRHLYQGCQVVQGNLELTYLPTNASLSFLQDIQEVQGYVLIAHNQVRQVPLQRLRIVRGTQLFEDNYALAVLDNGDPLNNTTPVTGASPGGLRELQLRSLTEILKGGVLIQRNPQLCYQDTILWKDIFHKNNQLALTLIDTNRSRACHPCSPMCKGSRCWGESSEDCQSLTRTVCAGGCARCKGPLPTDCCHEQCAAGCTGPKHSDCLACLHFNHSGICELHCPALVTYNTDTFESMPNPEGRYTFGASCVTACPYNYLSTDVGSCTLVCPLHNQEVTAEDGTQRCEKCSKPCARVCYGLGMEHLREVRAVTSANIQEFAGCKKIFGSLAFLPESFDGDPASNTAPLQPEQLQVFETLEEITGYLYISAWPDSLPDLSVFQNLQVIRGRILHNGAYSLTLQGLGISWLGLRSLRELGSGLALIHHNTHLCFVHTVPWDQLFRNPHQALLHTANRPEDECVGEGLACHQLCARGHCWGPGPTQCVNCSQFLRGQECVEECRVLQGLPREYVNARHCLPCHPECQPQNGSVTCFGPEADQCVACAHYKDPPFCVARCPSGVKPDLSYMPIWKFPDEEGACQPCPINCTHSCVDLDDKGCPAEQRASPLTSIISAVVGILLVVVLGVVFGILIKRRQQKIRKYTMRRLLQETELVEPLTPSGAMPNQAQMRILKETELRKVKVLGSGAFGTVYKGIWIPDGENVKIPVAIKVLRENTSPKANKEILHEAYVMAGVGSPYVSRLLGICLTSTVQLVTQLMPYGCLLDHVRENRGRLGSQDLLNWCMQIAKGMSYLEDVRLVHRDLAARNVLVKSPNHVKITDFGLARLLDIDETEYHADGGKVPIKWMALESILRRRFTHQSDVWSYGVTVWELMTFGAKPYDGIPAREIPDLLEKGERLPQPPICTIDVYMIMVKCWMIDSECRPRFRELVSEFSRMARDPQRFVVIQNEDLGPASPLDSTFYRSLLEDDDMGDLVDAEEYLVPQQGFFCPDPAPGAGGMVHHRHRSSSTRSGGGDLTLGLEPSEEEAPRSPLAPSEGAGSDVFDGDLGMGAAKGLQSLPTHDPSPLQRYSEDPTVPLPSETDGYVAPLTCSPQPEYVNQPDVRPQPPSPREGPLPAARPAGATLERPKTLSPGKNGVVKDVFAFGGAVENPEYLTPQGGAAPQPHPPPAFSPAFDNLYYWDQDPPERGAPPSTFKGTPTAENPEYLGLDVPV
Protocol: as §1, §2, §3, §4

| SMILES | IC50 (ErbB2 (D769Y)) [nM] | IC50 (ErbB2 (V777L)) [nM] | IC50 (ErbB2 (R896C)) [nM] | IC50 (ErbB2 (D769H)) [nM] |
| --- | --- | --- | --- | --- |
| Cc1cc(Nc2ncnc3ccc(NC(=O)/C=C/[C@H]4CCCN4C)cc23)ccc1Oc1ccc2nccn2n1 | 38.9 | 14.9 | 3.7 | 9.11 |
| Cc1cc(Nc2ncnc3ccc(NC(=O)/C=C/[C@H]4CCCN4C)cc23)ccc1Oc1ccn2ccnc2c1 | 0.244 | < 0.152 | 0.379 | < 0.152 |
| Cc1cc(Nc2ncnc3ccc(NC(=O)/C=C/[C@H]4CCCN4C)cc23)ccc1Oc1ccn2cnnc2c1 | 1.98 | 0.625 | 0.191 | 0.253 |
| Cc1cc(Nc2ncnc3ccc(NC(=O)/C=C/[C@H]4CCCN4C)cc23)ccc1Oc1cnc2ccnn2c1 | 0.6 | 0.279 | 0.336 | < 0.152 |
| Cc1cc(Nc2ncnc3ccc(NC(=O)/C=C/[C@H]4CCCN4)cc23)ccc1Oc1ccn2ncnc2c1 | 0.246 | 0.186 | 0.997 | 0.325 |
| Cc1cc(Nc2ncnc3ccc(NC(=O)/C=C/[C@H]4CCCN4C)cc23)ccc1Oc1cc2nccn2cn1 | 0.216 | 0.224 | 0.741 | 0.283 |
| Cc1cc(Nc2ncnc3ccc(NC(=O)/C=C/[C@H]4CCCN4)cc23)ccc1Oc1cc2nncn2cn1 | 0.247 | 0.357 | 1.13 | 0.422 |
| Cc1cc(Nc2ncnc3ccc(NC(=O)/C=C/[C@@H]4CCCN4C)cc23)ccc1Oc1cc2nncn2cn1 | 1.45 | 0.163 | 0.788 | 0.549 |
| CN1CCC[C@@H]1/C=C/C(=O)Nc1ccc2ncnc(Nc3ccc(Oc4cc5nncn5cn4)c(Cl)c3)c2c1 | < 0.152 | < 0.152 | 0.187 | < 0.152 |
| COCCOc1cc2ncnc(Nc3ccc(Oc4cc5nncn5cn4)c(C)c3)c2cc1NC(=O)/C=C/[C@H]1CCCN1C | < 0.152 | < 0.152 | 0.599 | 0.241 |
